Reference: patent publication US20220267271A1, “WNT ACTIVATORS AND METHODS OF USE” (MAYO FOUNDATION FOR MEDICAL EDUCATION AND RESEARCH, priority 2019, published 2022)

Columns and labels:
S. typhimurium TA100 = assay: Ames test, bacterial reverse mutation assay, TA100; design: species or system Salmonella typhimuium; conditions: 1011 and 1015 at 400 μM, mean ± SD, n = 3
Experimental: (§1) Ames test: According to the OECD Guidelines For Testing Of Chemicals, experiments with the tested agents, positive and negative controls, were conducted in triplicates on 6 tester strains, S. typhimurium: TA98, TA100, TA1535, TA1537 and E. coli: wp2[pKM101]+wp2 uvrA mixed 1:2. Dimethyl sulfoxide (DMSO) was used as the vehicle control for all tester strains in mutagenicity assay with and without metabolic activation. Compounds with known mutagenic activity were used as the positive controls in mutagenicity assay without metabolic activation: 2-nitrofluorene (0.1 μg/plate) for TA98, 4-nitroquinoline N-oxide (0.1 μg/plate) for TA100, sodium azide (0.2 μg/plate) for TA1535, 9-aminoacridine (7.5 μg/plate) for TA1537, and 4-nitroquinoline N-oxide (0.1 μg/plate) for E. coli. 2-Aminoantracene in final concentration 0.4 μg/ml was used as the positive control (the solution of 2-aminoantracene in DMSO was prepared immediately before experiment) in test with metabolic activation. For each experiment tester strain cultures were grown overnight in Oxoid nutrient broth #2 at 37° C. with shaking at 235 rpm to a density of 1-2×10^9 colony forming units/ml (OD600˜1.5). The S9 mix, which is consist of 9000 g supernatant fraction of rat liver homogenate (S9 fraction), was prepared immediately prior to its use in experimental procedure.
(§2) The tester strain (10 μl of overnight culture) was mixed with the test agent (10 μl of the DMSO stock) and GM liquid medium (30 μl) or S9 mix (30 μl). Then, 200 μl of molten top agar supplemented with histidine/biotin (final concentration 0.05 mM) for S. typhimurium and tryptophan (final concentration 0.025 mM) for E. coli were added to the tube (top agar was kept at 44° C. to prevent hardening). The mixed suspension was poured onto the surface of a GM agar plate (2.0 ml of GM agar per plate). After the top agar solidified, the plates were inverted and incubated at 37° C. for 48 hours. The results were expressed as number of revertant colonies per plate. The final concentrations of the test compounds in the mutagenicity assay with all tester strains in both the presence and absence of S9 mix were 400 μM. All concentrations were tested in triplicates.

C2C12 cells = assay: Alkaline phosphatase (ALP) activity assay, osteoblastic differentiation of C2C12 cells; assay type: cell-based; conditions: 72 h; for potency in inducing C2C12 osteoblastic differentiation compared with CI-994: dose-response 0.1-12.8 μM
Experimental: C2C12 cells were seeded into 24-well plates (1×10^5 cells/well). After culture overnight, the cells were treated with a Wnt activator at 0.8 μM (A) and 1.6 μM (B) for 72 h. The ALP activity was measured by ALP assay kit from AnaSpec (AS-72146). All the values are the average of triple determinations with the s.d. indicated by error bars. *P<0.05, **P<0.01 versus corresponding control value. This experiment is a representation of two such experiments performed with similar data.
C2C12 cells were seeded into 24-well plates (1×10^5 cells/well). After culture overnight, the cells were treated with the noted compounds at 0, 0.1, 0.2, 0.4, 0.8, 1.6, 3.2, 6.4 and 12.8 μM for 72 hours. The ALP activity was measured by ALP assay kit from AnaSpec (AS-72146). All the values are the average of triple determinations with the s.d. indicated by error bars.
Alkaline phosphatase (ALP) activity assay: C2C12 cells in 24-well plates were treated with each individual compound at the indicated concentrations for 72 h. Cells were then harvested for assay of ALP activity with the ALP assay kit (AnaSpec) according to the manufacturers specifications.

S. typhimurium TA1535 = assay: Ames test, bacterial reverse mutation assay, TA1535; design: species or system Salmonella typhimuium; conditions: 1011 and 1015 at 400 μM, mean ± SD, n = 3
Experimental: as §1, §2

S. typhimurium TA98 = assay: Ames test, bacterial reverse mutation assay, TA98; design: species or system Salmonella typhimuium; conditions: 1011 and 1015 at 400 μM, mean ± SD, n = 3
Experimental: as §1, §2

hCMEC/D3 cells = assay: Cell viability assay (CellTiter-Glo) in hCMEC/D3 cells; assay type: cell-based, human; conditions: hCMEC/D3 cells, 0.3, 1, 3, 10 and 30 μM, 24 h
Experimental: The human brain endothelial capillary hCMEC/D3 cells were cultured with compounds at the indicated concentrations for 24 h. Cell viability was assessed by the Cell TitreGlo Assay system from Promega. Data represent mean±SD from three independent experiments. *P<0.05.
Cell viability assay: Human blood-brain barrier hCMEC/D3 cells were seeded into 96-well tissue culture treated microtiter plates at a density of 20,000 cells/well. After 24 h incubation, the cells were treated with the test compounds at the indicated concentrations for 24 h. Cell viability was measured by the CellTiter-Glo Assay (Promega), which is a luminescent assay that is an indicator of live cells as a function of metabolic activity and ATP content.

LRP6 = assay: Endogenous LRP6 expression in N2a cells by Western blotting; assay type: cell-based; conditions: 0.8 and 1.6 μM, 24 h
Experimental: (A) HT1080 cells stably transduced with human LRP6 with HA tag were treated with niciosamide (1 μM) and other compounds as noted (1 μM) for 24 hr. The levels of HA-LRP6 were examined by Western blots with anti-HA antibody. All samples were also probed with anti-actin antibody to verify equal loading. This experiment is a representative of two such experiments performed with similar data. (B) N2a cells were treated with 1015 and 1011 at the indicated concentrations for 24 h. The expression levels of LRP6, β-catenin and actin were examined by Western blotting. This experiment is a representative of three such experiments performed with similar data. (C) HEK293 cells were transfected with LRP6 siRNAs, and after 8 h incubation were further transfected with Super8XTOPFlash construct and β galactosidase-expressing vector. […] The luciferase activity was then measured and normalized to β-galactosidase activity. […]
Western blotting: Cells in 6-well plates were lysed in 0.5 ml of lysis buffer (phosphate-buffered saline containing 1% Triton X-100, 1× Proteinase inhibitor cocktail Complete, and 1 mM PMSF) at 4° C. for 15 min. Equal quantities of protein were subjected to SDS-PAGE under reducing conditions. […] The immunoreactive proteins were then detected using the ECL system or the Odyssey infrared imaging system (LI-COR). […]

[1] = with metabolic activation (S9 mix)

With `CC1CCCC(C)N1CCNC(=O)c1ccc(C(=O)Nc2ccccc2N)nc1` (stereo not shown) [Compound 1011] the “Number of revertant colonies per plate, TA100” value (shortened to “Number … per plate, TA100”) (S. typhimurium TA100; [1]) was 4.7 ± 2.1 revertant colonies per plate, the “Number … per plate, TA100” value (S. typhimurium TA100; without metabolic activation) was 4.3 ± 3.5 revertant colonies per plate and the “potency in inducing C2C12 osteoblastic differentiation compared with CI-994” value (C2C12 cells) was “more potent than CI-994”. The “Number of revertant colonies per plate, TA1535” value (from here on “Number … per plate, TA1535”) (S. typhimurium TA1535; [1]) was 0.7 ± 0.6 revertant colonies per plate, the “Number … per plate, TA1535” value (S. typhimurium TA1535; without metabolic activation) was 1.7 ± 2.1 revertant colonies per plate and the “Number of revertant colonies per plate, TA 98” value (from here on “Number … per plate, TA 98”) (S. typhimurium TA98; [1]) was 1.7 ± 2.1 revertant colonies per plate. The “Number … per plate, TA 98” value (S. typhimurium TA98; without metabolic activation) was 1.7 ± 1.5 revertant colonies per plate, the “cytotoxicity (cell viability)” value (hCMEC/D3 cells) was “not toxic at all the tested concentrations” and the “endogenous LRP6 expression” value (LRP6) was “significantly enhanced”.
In the case of `CC(=O)Nc1ccc(C(=O)Nc2ccccc2N)cc1` [CI-994, 4-(acetylamino)-N-(2-aminophenyl)benzamide, reference compound], the ALP activity (C2C12 cells; C2C12 cells, 0.8 μM and 1.6 μM) is reported as “significantly enhanced”.
For `Nc1ccccc1NC(=O)c1ccc(C(=O)NCC2CCN2C2CCCC2)cn1` (stereo not shown) [Compound 1015], the “Number … per plate, TA100” value (S. typhimurium TA100; [1]) was 2.0 ± 1.0 revertant colonies per plate, the “Number … per plate, TA100” value (S. typhimurium TA100; without metabolic activation) was 1.33 ± 0.6 revertant colonies per plate and the “potency in inducing C2C12 osteoblastic differentiation compared with CI-994” value (C2C12 cells) was “more potent than CI-994”. The “Number … per plate, TA1535” value (S. typhimurium TA1535; [1]) was 0.7 ± 1.2 revertant colonies per plate, the “Number … per plate, TA1535” value (S. typhimurium TA1535; without metabolic activation) was 0.3 ± 0.6 revertant colonies per plate and the “Number … per plate, TA 98” value (S. typhimurium TA98; [1]) was 0.7 ± 1.2 revertant colonies per plate. For the same molecule, the “Number … per plate, TA 98” value (S. typhimurium TA98; without metabolic activation) was 1.3 ± 1.5 revertant colonies per plate, the “cytotoxicity (cell viability)” value (hCMEC/D3 cells) was “not toxic at or below the 10 μM concentration” and the “endogenous LRP6 expression” value (LRP6) was “significantly enhanced”.
